Reference: patent US7323457B2, “Substituted sulfonamides and ureas useful for inhibiting kinase activity” (Aventis Pharmaceuticals Inc., priority 2001, dated 2008)

Molecular target: Src Kinase (p60^C-Src) (Homo sapiens, UniProt P12931)
Experiment: Src kinase DELFIA time-resolved fluorometric assay
Format: biochemical
Conditions: Src kinase inhibitory activity; 100 μM ATP, poly(Glu, Tyr) 4:1 substrate, 15 min at room temp.; read-out: Activity (μMol, Delfia assay. IC50)
Procedure: The compounds 1-25 above were assayed for activity with respect to the Src protein tyrosine kinase by the fluorometric method described in Measurement of the Protein Tyrosine Kinase Activity of c-Src Using Time-Resolved Fluorometry of Europium Chelates, Braunwalder, A.F. et al., Analytical Biochemistry 238, 159-164 (1996), the disclosure of which is incorporated herein by reference, using the materials and procedures further specified below.
General Assay Method for Src-Kinase:
• Costar 384 Clear, non-treated, high-binding plates • Sigma poly(Glu, Tyr) 4:1, ave. MW 35,000 • Src Kinase (p60^C-Src) • Sigma ATP (1.5 mM Stock Soln. in H2O) • MES Buffer: 30 mM MES (pH 6.8) • 10 mM MgCl2 • MBI Buffer: (MES+0.4 mg/ml BSA+0.003% IGEPAL) • Wallac Eu-labelled anti-phosphotyrosine Antibody (CR04-100) • Coating Solution: • 22.5 mM Na2CO3 (pH 9.6) • 27.5 mM NaHCO3 • 0.9% NaCl • Antibody Dilution Buffer: (MES+3% BSA) • DELFIA® Wash Solution (TTBS): • 0.5 M NaCl • 20 mM Tris (pH7.4) • 0.15% Tween 20 • DELFIA Enhancement Solution Method:
The plates were coated with 0.1 mg/ml poly(Glu, Tyr) in Coating Solution, 35 μl/well. […]
The reaction was stopped by aspiration, and then washed 3 times with MES (100 μl/wash). […] 20 μl DELFIA enhancement solution was added and the plates were read on a Wallac Victor plate reader in time-resolved fluorescence mode using 340 nm excitation and 615 nm emission wavelengths.

## [4-(Piperidin-4-yl)carbonyl-1-[[2-(4-phenylbutanoyl) amino]-4-[(1-aminocarbonyl-2-(naphth-2-yl))ethylamino]-carbonylaminophenyl]homopiperazine [Example 21]
  IC50: 22 µM
